This is an account of results in article PMC9101684, “Hempseed (Cannabis sativa) Peptide H3 ([sequence]) Exerts Cholesterol-Lowering Effects in Human Hepatic Cell Line” (Nutrients, 2022).

One assay deals with HNF1-α. The experiment in a line: Western blot, HNF1-α in HepG2 cells. Type of assay: cell-based, human. As to conditions: pravastatin 1.0 µM, 24 h, versus control; p < 0.0001; mean ± S.D., three experiments in duplicate. As to the method: (§1) Immunoblotting experiments were performed using an optimized protocol. Details are available in the Supplementary Materials. […]
(§2) 2.7. Western Blot Analysis
(§3) Immunoblotting experiments were performed using optimized protocol […]
(§4) µM of H3 for 24 h. After each treatment, the supernatants were collected and stored at -20 °C; cells were scraped in 40 µL ice-cold lysis buffer (RIPA buffer + inhibitor cocktail + 1:100 PMSF + 1:100 Na-orthovanadate + 1:1000 β-mercaptoethanol) and transferred in ice-cold microcentrifuge tubes. After centrifugation at 13,300 g for 15 min at 4 °C, the supernatants were recovered and transferred into new ice-cold tubes. […]
(§5) Cocktail) on ice for 20 min and then centrifuged 12000 rpm for 10 min at 4°C and the supernatant was collected (nucleus isolate). Total proteins were quantified […]
(§6) Sodium Dodecyl Sulfate-Polyacrylamide (SDS-PAGE) gel at 130 V for 45 min.
(§7) Subsequently, the gel was pre-equilibrated in H2O for 5 min at room temperature (RT) and transferred to a nitrocellulose membrane (Mini nitrocellulose Transfer Packs,) using a Trans-Blot Turbo at 1.3 A, 25 V for 7 min. Target proteins, on milk or BSA blocked membrane, were detected by primary antibodies as follows: anti-SREBP-2, anti-LDLR, anti-HMGCoAR, anti-PCSK9, anti HNF1-α, anti-p-HMGCoAR, anti-p-AMPK and anti-β-actin. […]

The test system of assay [1] is HMGCoAR. Nature of the assay: Western blot, HMGCoAR protein in HepG2 cells. In kind it is cell-based, human. The settings on record: pravastatin 1.0 µM, 24 h, versus control; p < 0.01; mean ± S.D., three independent experiments in duplicate. As to the method:
as §1, §2, §3, §4, §5, §6, §7
(In general: In western blotting, separated proteins are transferred to a membrane and probed.)

Assay [2] has as its system AMPK. Nature of the assay: Western blot, p-AMPK (threonine 172) in HepG2 cells. Type of assay: cell-based, human. As to conditions: pravastatin 1.0 µM, 24 h, versus control; p < 0.05; mean ± S.D., three independent experiments in duplicate. As to the method: as §1, §2, §3, §4, §5, §6, §7
For assay [3], the system named is PCSK9. Nature of the assay: ELISA, mature PCSK9 secreted by HepG2 cells. In kind it is cell-based, human. A general note: In an ELISA, binding on a coated surface is turned into a signal by an enzyme label.
The test system of the next assay is SREBP-2. Nature of the assay: Western blot, mature and precursor SREBP-2 in HepG2 cells. Type of assay: cell-based, human. The settings on record: pravastatin 1.0 µM, 24 h, versus untreated. As to the method:
as §1, §2, §3
µM of H3 for 24 h. After each treatment, the supernatants were collected and stored at -20 °C; cells were scraped in 40 µL ice-cold lysis buffer (RIPA buffer + inhibitor cocktail + 1:100 PMSF + 1:100 Na-orthovanadate + 1:1000 β-mercaptoethanol) and transferred in ice-cold microcentrifuge tubes. After centrifugation at 13,300 g for 15 min at 4 °C, the supernatants were recovered and transferred into new ice-cold tubes. For the mature SREBP-2 nuclear […]
for at 37 °C under 5% CO2 atmosphere for 24h. Therefore, cells were collected with PBS ice-cold and centrifuged 1500 rmp for 5 min at 4°C. The pellet was incubated with 20 µL of Nuclei Isolation Buffer A (10 mM HEPES pH 7.9, 1.5 mM MgCl2, 10 mM KCl, 0.2 mM EDTA, 0.1% β-mercaptoethanol, 0.5 mM PMSF, 0.1 % NP-40, one cOmplete™ Mini, EDTA-free Protease Inhibitor Cocktail) on ice for 10 min and then centrifuged 12000 rpm for 10 min at 4°C. Subsequently, the pellet was incubated with 20 µL of Nuclei Isolation Buffer B (20 mM HEPES […]
0.5 mM PMSF, 0.42 M NaCl, one cOmplete™ Mini, EDTA-free Protease Inhibitor Cocktail) on ice for 20 min and then centrifuged 12000 rpm for 10 min at 4°C and the supernatant was collected (nucleus isolate). Total proteins were quantified […]
as §7, with “anti-β-actin. Secondary antibodies conjugated with HRP and a chemiluminescent reagent were used to visualize target proteins and their signal was quantified using the Image Lab Software (Biorad, Hercules,” for “anti-β-actin.”

For the next assay, the system named is p-HMGCoAR. The experiment in a line: Western blot, p-HMGCoAR (serine 872) in HepG2 cells. In kind it is cell-based, human. As to conditions: pravastatin 1.0 µM, 24 h, versus control; p < 0.01; mean ± S.D., three independent experiments in duplicate. The method, then:
as §1, §2, §3, §4, §5, §6, §7

For assay [4], the system named is PCSK9. Nature of the assay: Western blot, intracellular PCSK9 in HepG2 cells. As to conditions: pravastatin 1.0 µM, 24 h, versus control; p < 0.0001; mean ± S.D., three experiments in duplicate. In kind it is cell-based, human. As to the method: as §1, §2, §3, §4, §5, §6, §7
The next assay has as its system HepG2 cells. The experiment in a line: Fluorescent LDL uptake by HepG2 cells. Type of assay: cell-based, human. The settings on record: pravastatin 1.0 µM, 24 h, then LDL-DyLight 550 for 2 h at 37 °C, fluorescence, versus control; p < 0.0001; mean ± S.D., three experiments in triplicate. The method, then: treatment, the culture medium was replaced with 50 µL/well LDL-DyLight™ 550 working solution (Cayman Chemical Company, Ann Arbor, MI, USA) prepared in DMEM without FBS and antibiotics. The cells were additionally incubated for 2 h at 37 °C and then the culture medium was aspirated and replaced with PBS (100 µL/well). The degree of LDL uptake was measured using the Synergy H1 fluorescent plate reader (Winooski, VT, USA) (excitation and […]

In assay [5] the test system is LDLR. The experiment in a line: Western blot, total LDLR in HepG2 cells. In kind it is cell-based, human. The settings on record: pravastatin 1.0 µM, 24 h, versus control; p < 0.001; mean ± S.D., three independent experiments in duplicate. As to the method: as §1, §2, §3, §4, §5, §6, §7
Assay [6] relates to HMGCoAR. Set-up: method as in 5 sources, ref 24 = [24]; PMID 2513368; doi:10.1016/S0022-2275(20)38255-9; 24. Mosley S.T. Kalinowski S.S. Schafer B.L. Tanaka R.D. Tissue-selective acute effects of inhibitors of 3-hydroxy-3-methylglutaryl coenzyme A reductase on cholesterol biosynthesis in lens J. Lipid Re ||| ref 32 = [32]; PMID 25690031; doi:10.3390/ijms16024150; 32. Soares R.A.M. Mendonça S. De Castro L.Í.A. Menezes A.C.C.C.C. Arêas J.A.G. Major Peptides from Amaranth (Amaranthus cruentus) Protein Inhibit HMG-CoA Reductase Activity Int. J. Mol. Sci. 2015 16 4 ||| ref 33 = [33]; doi:10.1016/j.jff.2015.02.021; 33. Lammi C. Zanoni C. Arnoldi A. […], […], and LPYP, three peptides from soy glycinin, modulate cholesterol metabolism in HepG2 cells through the activation of the LDLR-SREBP2 pathway J. Fu ||| ref 34 = [34]; PMID 26310992; doi:10.1021/acs.jafc.5b03497; 34. Lammi C. Zanoni C. Arnoldi A. Vistoli G. Two Peptides from Soy β-Conglycinin Induce a Hypocholesterolemic Effect in HepG2 Cells by a Statin-Like Mechanism: Comparative in Vitro and in Silico Model ||| ref 11, 12 = [11]; PMID 29096438; doi:10.1021/acs.jafc.7b03590; 11. Aiello G. Lammi C. Boschin G. Zanoni C. Arnoldi A. Exploration of Potentially Bioactive Peptides Generated from the Enzymatic Hydrolysis of Hempseed Proteins J. Agric. Food Chem. 2017 65 10174 101 || [12]; PMID 28931275; doi:10.1021/acs.jafc.7b02742; 12. Zanoni C. Aiello G. Arnoldi A. Lammi C. Hempseed Peptides Exert Hypocholesterolemic Effects with a Statin-Like Mechanism J. Agric. Food Chem. 2017 65 8829 8838 10.1021/acs.jafc.7b02742 28931275. As to conditions: cited from earlier work. The source says:
Th ... || CVD is a multifactorial pathology in which oxidative and inflammatory status as well as hypercholesterolemia are among the main risk factors.

The subject of assay [7] is LDLR. Nature of the assay: In-Cell Western (ICW), LDLR localized on cellular membranes of HepG2 cells. Type of assay: cell-based, human. The settings on record: pravastatin 1.0 µM, 24 h, versus control, p < 0.0001, mean ± S.D., three experiments in triplicate.
Description: For the experiments, a total of 3 × 10^4 HepG2 cells/well were seeded in 96-well plates. The following day, the cells were washed with PBS and then starved overnight (O/N) in DMEM without FBS nor antibiotics.
HMGCoAR were provided in the HMGCoAR Assay Kit (Sigma Aldrich SRL, Milan, Italy). The experiments were carried out following the manufacturer instructions at 37 °C. In particular, each reaction (200 µL) was prepared adding the reagents in the following order: 1 X assay buffer, a 10–1000 µM doses of H3 or vehicle (C), the NADPH (4 µL), the substrate solution (12 µL), and finally the HMGCoAR (catalytic domain) (2 µL). Subsequently, the samples were mixed and the absorbance at 340 nm read by the microplate reader Synergy H1
In-Cell Western (ICW) Assay
For the experiments, a total of 3 X 10 4 HepG2 cells/well were seeded in 96-well plates. The following day, cells were washed with PBS and then starved overnight (O/N) in DMEM without FBS and antibiotics.
Subsequently, they were fixed in 4% paraformaldehyde for 20 min at room temperature (RT). […] The reaction was stopped with 2 M H2SO4 and then the absorbance at 450 nm was measured using the microplate reader Synergy H1 (Winooski, VT, USA). After the read, cells were stained by adding 1 X Janus Green stain, incubating for 5 min at RT. […]
Assay [8] has as its system AMPK. The settings on record: cited from earlier work. The source says:
Furthermore, it is also known that statins are able to activate AMPK [44] with the consequence of a synergistic inhibition of HMGCoAR activity, its direct target. In agreement with these evidences, our results provide a clear indication that, similarly to statins, peptide H3 increases the phosphorylation level of AMPK at the Thr172 residue of the catalytic subunit, which in turn produces an inhibition of ...

[9] abbreviates: from soybean glycinin hydrolysis with pepsin, read-out: IC50, HMGCoAR (soybean glycinin peptides).
Setting [10] is: LTFPGSAED from lupin protein, VGVL from amaranth protein, hydrolysis with pepsin, read-out: IC50, HMGCoAR (literature peptides).
The mark [11] stands for this setting: from soybean β-conglycinin, read-out: IC50, HMGCoAR (soybean β-conglycinin peptides).

Read-outs that look alike come from different tables or passages of the source.

What is called IC50 is the concentration needed to halve the response being measured. Turning to `CC[C@H](C)C(=O)O[C@H]1C[C@H](O)C=C2C=C[C@H](C)[C@H](CC[C@@H](O)C[C@@H](O)CC(=O)O)[C@H]21` [pravastatin], the “HNF1-α level (activation up to)” value in the assay on HNF1-α turned out to be 116.9 ± 3.21%. The compound also gave an HMGCoAR protein level with HMGCoAR [1] of 129.3 ± 9.33%. Moreover, the “AMPK phosphorylation (threonine 172)” value in the assay on AMPK [2] is given as 122.7 ± 5.23%. Moreover, the “release of PCSK9 (increase up to)” value with PCSK9 [3] was 119.6 ± 1.18%. Further, the “precursor SREBP-2 (125 KDa) protein level” value in the assay with SREBP-2 (cytoplasmic fraction, p < 0.05, Figure S2) was 140.8 ± 9.0%. In addition, the “mature nuclear SREBP-2 (65 KDa) protein level” value in the assay on SREBP-2 (nuclear fraction, p < 0.0001, mean ± S.D., three independent experiments in duplicate) is 152.3 ± 8.2%. For the same compound, the “total mature SREBP-2 (65 KDa) protein level” value with SREBP-2 (total lysate, p < 0.001, mean ± S.D., three independent experiments in duplicate) came out at 134.9 ± 17.3%. Besides, in the assay with p-HMGCoAR, the “phosphorylation level of HMGCoAR (serine 872)” value was found to be 143.5 ± 4.64%. In addition, the “PCSK9 protein level (increase up to)” value with PCSK9 [4] amounted to 118.8 ± 6.11%. In addition, the LDL uptake with HepG2 cells was determined as 226.9 ± 11.05%. Besides, in the assay with LDLR [5], the “total LDLR protein level” value came out at 140.8 ± 15.35%. Besides, the IC50 in the assay with HMGCoAR [6] (read-out: IC50, HMGCoAR (literature value for pravastatin)) was 0.47 µM. Also, in the assay with LDLR [7], the “LDLR protein level on cellular membrane” value is 127.3 ± 14.31%.
Turning to “IAVPGEVA [peptide from soybean glycinin hydrolysis with pepsin]”, the “mechanism of HMGCoAR inhibition (AMPK phosphorylation)” value (shortened to “mechanism of HMGCoAR inhibition”) in the assay with AMPK [8] (soybean peptides) is reported as “share the same mechanism of HMGCoAR inhibition”. In the assay on HMGCoAR [6] (setting [9]), the IC50 is 222 µM.
On to “IAVPTGVA [peptide from soybean glycinin hydrolysis with pepsin]”, for which the “mechanism of HMGCoAR inhibition” value in the assay on AMPK [8] (soybean peptides) was “share the same mechanism of HMGCoAR inhibition”. For the same compound, the IC50 in the assay with HMGCoAR [6] (setting [9]) is 247 µM.
Consider “LILPKHSDAD [peptide from lupin protein hydrolysis with pepsin]”, for which the “mechanism of HMGCoAR inhibition” value in the assay on AMPK [8] (lupin peptides) is “share the same mechanism of HMGCoAR inhibition”.
With “LPYP [peptide from soybean glycinin hydrolysis with pepsin]”, in the assay with AMPK [8] (soybean peptides), the “mechanism of HMGCoAR inhibition” value was “share the same mechanism of HMGCoAR inhibition”. In the assay on HMGCoAR [6] (setting [9]), the IC50 is 300 µM.
For “LTFPGSAED [peptide from lupin protein hydrolysis with pepsin]”, the “mechanism of HMGCoAR inhibition” value in the assay on AMPK [8] (lupin peptides) is recorded as “share the same mechanism of HMGCoAR inhibition”. The IC50 in the assay with HMGCoAR [6] (setting [10]) is 68.4 µM.
For “VGVL [peptide from amaranth protein hydrolysis with pepsin]”, in the assay with HMGCoAR [6] (setting [10]), the IC50 was 50 µM.
As for “YVVNPDNDEN [peptide from soybean β-conglycinin]”, in the assay with HMGCoAR [6] (setting [11]), the IC50 is 150 µM.
Regarding “YVVNPDNNEN [peptide from soybean β-conglycinin]”, the IC50 with HMGCoAR [6] (setting [11]) was 200 µM.
